Test results: US20240360133A1, “FUSED TRICYCLIC COMPOUND, PREPARATION METHOD THEREFOR AND APPLICATION THEREOF IN MEDICINE” (Jiangsu Hengrui Pharmaceuticals Co., Ltd., priority 2020, published 2024)

target: T1, human TLR8 (Homo sapiens, UniProt Q9NR97); test: Inhibitory effect on human TLR8 pathway (HEK-Blue hTLR8 SEAP reporter); assay type: cell-based; conditions: HEK-Blue hTLR8 cells, 6 μM resiquimod, 20 h, SEAP OD620
T1 construct: host or cells: HEK-Blue hTLR8 (HEK293)
T1 sequence (Q9NR97 27-1041): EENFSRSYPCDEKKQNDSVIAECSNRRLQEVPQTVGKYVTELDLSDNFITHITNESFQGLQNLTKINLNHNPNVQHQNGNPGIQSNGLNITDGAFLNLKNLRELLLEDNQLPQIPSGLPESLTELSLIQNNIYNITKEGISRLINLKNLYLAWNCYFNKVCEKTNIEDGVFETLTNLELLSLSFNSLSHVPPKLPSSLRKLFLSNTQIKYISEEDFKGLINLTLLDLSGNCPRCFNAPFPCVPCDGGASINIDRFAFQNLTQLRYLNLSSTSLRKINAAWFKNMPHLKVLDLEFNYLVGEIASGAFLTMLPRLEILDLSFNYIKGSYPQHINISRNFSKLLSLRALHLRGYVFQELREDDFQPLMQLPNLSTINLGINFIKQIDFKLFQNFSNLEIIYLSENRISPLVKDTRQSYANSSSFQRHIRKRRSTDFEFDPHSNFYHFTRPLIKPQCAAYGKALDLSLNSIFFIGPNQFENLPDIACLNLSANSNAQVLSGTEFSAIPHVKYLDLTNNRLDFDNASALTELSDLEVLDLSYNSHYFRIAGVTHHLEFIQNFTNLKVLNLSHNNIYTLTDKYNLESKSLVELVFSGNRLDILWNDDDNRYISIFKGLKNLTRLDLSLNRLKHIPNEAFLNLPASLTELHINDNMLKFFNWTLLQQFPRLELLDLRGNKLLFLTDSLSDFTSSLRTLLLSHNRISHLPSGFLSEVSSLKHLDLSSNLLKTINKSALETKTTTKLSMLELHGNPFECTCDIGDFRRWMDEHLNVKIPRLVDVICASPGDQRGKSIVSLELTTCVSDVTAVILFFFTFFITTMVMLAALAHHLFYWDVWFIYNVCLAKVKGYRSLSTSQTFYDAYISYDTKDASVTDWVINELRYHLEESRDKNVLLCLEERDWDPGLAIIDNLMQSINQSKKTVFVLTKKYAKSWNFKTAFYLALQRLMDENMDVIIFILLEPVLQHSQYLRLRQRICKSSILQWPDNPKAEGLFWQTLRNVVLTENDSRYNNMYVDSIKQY
Procedure: • 1. HEK-Blue™ hTLR8 cell (Invivogen) • 2. Resiquimod (R848, Invivogen) • 3. Alkaline phosphatase detection medium (Quanti-Blue Detection, Invivogen) • 4. Blasticidin (Invivogen) • 5. Zeocin (Invivogen) • 6. Normocin (Invivogen) • 7. DMEM/HIGH Glucose (GE Healthcare) • 8. Fetal bovine serum (FBS, Gibco) • 9. Phosphate-buffered saline (Shanghai BasalMedia Technologies Co., Ltd.) • 10. Sterile purified water (made in-house by Shanghai Hengrui) • 11. 15 mL centrifuge tube (Corning) • 12. 96-well formulating plate (Corning) • 13. 96-well flat-bottom cell culture plate (Corning) • 14. Constant-temperature cell incubator (Thermo scientific) • 15. Constant-temperature incubator (Shanghai Yiheng Scientific Instruments Co., Ltd.) • 16. PHERAstar FS microplate reader (BMG Labtech)
HEK-Blue™ hTLR8 cells were purchased from Invivogen. These cells are HEK293 cells transfected with the human Toll-like receptor 8 (TLR8) gene and the secreted alkaline phosphatase reporter gene (SEAP). The alkaline phosphatase reporter gene (SEAP) is under the regulation of the IFN—P minimal promoter comprising 5 NF-kB and AP-1 binding sites. Upon activation of TLR8 with an agonist, SEAP secretion is induced via downstream NF-kB and AP-1. After addition of an antagonist compound, the pathway described above is inhibited, and SEAP secretion is reduced. The activity of the compounds for the TLR8 pathway was evaluated by measuring OD620 through the SEAP substrate.
20 mM test compounds dissolved in 100% DMSO were serially diluted with 100% DMSO to 2000, 400, 80, 16, 3.2, 0.64, 0.128, 0.0256 μM, with blank wells containing 100% DMSO. The compounds and 100% DMSO were then 20-fold diluted in DMEM/HIGH glucose media containing 10% inactivated FBS (complete media, the same applies below). Resiquimod was diluted to 60 μM with sterile water. The 60 μM resiquimod dilution in sterile water was added to a 96-well cell culture plate at 20 μL/well. The above compounds diluted in complete media and 100% DMSO were then added at 20 μL/well to wells containing resiquimod, 20 μL of sterile water and 20 μL of 100% DMSO diluted in the complete medium were added to negative control wells.
HEK-Blue™ hTLR8 cells were cultured in a DMEM/HIGH glucose medium containing 10% inactivated FBS, 100 μg/mL Normocin, 10 μg/mL blasticidin, and 100 μg/mL Zeocin. Cells that were in a good state of growth and had grown to 70%-8% were collected. The growth medium was discarded, 5-10 mL of PBS pre-heated at 37° C. was added to wash the cells once, and 2-5 mL of pre-heated PBS was added. The cells were cultured at 37° C. for 1-2 min, dispersed by pipetting, transferred to a 15 mL centrifuge tube, and counted, and the cell density was adjusted to 4.8×10^5/mL with the complete medium. After density adjustment, 160 μL of the resulting cell suspension was added to the above 96-well cell culture plate to a final number of cells per well of 76,500/well. The final concentration of resiquimod was 6 μM, and the final concentrations of the test compounds were 10,000, 2000, 400, 80, 16, 3.2, 0.64, and 0.128 nM. The cells were cultured in a 37° C., 5% CO2 incubator for 20 h. Then 20 μL of the supernatant was added to 180 μL of the prepared alkaline phosphatase detection medium and incubated in the dark in a constant-temperature incubator at 37° C. for 120 min. The OD620 absorbance readings were taken on a microplate reader. The inhibition rate was calculated using the following formula: […]
Inhibition curves were plotted using Graphpad Prism software according to the concentrations of the compounds and the corresponding inhibition rates, and the concentrations of the compounds at which the inhibition rate reached 50%, i.e., IC50 values, were calculated and are shown in Table 2.

IC50 [nM] | Compound
18.8 | Cc1cc(-c2[nH]c3cc4c(nc3c2C(C)C)CN(CC(N)=O)CC4)cc(C)n1 [Example 8, 2-(2-(2,6-Dimethylpyridin-4-yl)-3-isopropyl-1,5,7,8-tetrahydro-6H-pyrrolo[3,2-b][1,7]naphthyridin-6-yl)acetamide]
0.6 | Cc1c(-c2[nH]c3cc4c(nc3c2C(C)C)CNCC4)cn2ncnc2c1C [Example 9, 2-(7,8-Dimethyl-[1,2,4]triazolo[1,5-a]pyridin-6-yl)-3-isopropyl-5,6,7,8-tetrahydro-1H-pyrrolo[3,2-b][1,7]naphthyridine]
8.2 | Cc1c(-c2[nH]c3cc4c(nc3c2C(C)C)CN(CC(N)=O)CC4)cn2ncnc2c1C [Example 10, 2-(2-(7,8-Dimethyl-[1,2,4]triazolo[1,5-a]pyridin-6-yl)-3-isopropyl-1,5,7,8-tetrahydro-6H-pyrrolo[3,2-b][1,7]naphthyridin-6-yl)acetamide]

Second part, the compound before the results:

Compound | IC50 [nM]
Cc1cc(-c2[nH]c3cc4c(nc3c2C(C)C)CNCC4)cc(C)n1 [Example 1, 2-(2,6-Dimethylpyridin-4-yl)-3-isopropyl-5,6,7,8-tetrahydro-1H-pyrrolo[3,2-b][1,7]naphthyridine] | 0.8
Cc1cc(-c2[nH]c3cc4c(nc3c2C(C)C)CN(C(C)C)CC4)cc(C)n1 [Example 2, 2-(2,6-Dimethylpyridin-4-yl)-3,6-diisopropyl-5,6,7,8-tetrahydro-1H-pyrrolo[3,2-b][1,7]naphthyridine] | 30.4
Cc1cc(-c2[nH]c3cc4c(nc3c2C(C)C)CN(CCc2ccc(N3CCNCC3)nc2)CC4)cc(C)n1 [Example 4, 2-(2,6-Dimethylpyridin-4-yl)-3-isopropyl-6-(2-(6-(piperazin-4-yl)pyridin-3-yl)ethyl)-5,6,7,8-tetrahydro-1H-pyrrolo[3,2-b][1,7]naphthyridine] | 1.8
Cc1cc(-c2[nH]c3cc4c(nc3c2C(C)C)CN(Cc2ccc(N3CCNCC3)cn2)CC4)cc(C)n1 [Example 5, 2-(2,6-Dimethylpyridin-4-yl)-3-isopropyl-6-((5-(piperazin-1-yl)pyridin-2-yl)methyl)-5,6,7,8-tetrahydro-1H-pyrrolo[3,2-b][1,7]naphthyridine] | 2.5
Cc1cc(-c2[nH]c3cc4c(nc3c2C(C)C)CN(CC23CCC(N)(CC2)CC3)CC4)cc(C)n1 [Example 7, 4-((2-(2,6-Dimethylpyridin-4-yl)-3-isopropyl-1,5,7,8-tetrahydro-6H-pyrrolo[3,2-b][1,7]naphthyridin-6-yl)methyl)bicyclo[2.2.2]octyl-1-amine] | 2.2
